# Laboratory results from US20230242558A1, “NICOTINATE AND NICOTINAMIDE RIBOSIDE-BASED COMPOUNDS AND DERIVATIVES THEREOF” (New Frontier Bio, Inc., priority 2022, published 2023).
# System: HaCaT cells
# Experiment: NAD assay in HaCaT cells, total NAD level normalized to protein
# Format: cell-based
# Details: 4 hours incubation, concentration not given
# Method: The biological activity of certain compounds disclosed herein was determined using the following method: • 1. Plate HaCaT cells in 12-well tissue culture plates at a density of 200,000 cells per well in 0.75 mL DMEM growth medium. Incubate overnight at 37° C. in a incubator at 5% CO2. • 2. Next day, prepare dilutions of each compound in growth medium at the desired final concentration. • 3. Incubate cells as above for 4 hours. • 4. After the incubation, wash cell monolayers in each well with 200 uL PBS and add 200 uL 0.25% Trypsin. Let cells lift for 15 minutes. • 5. Once cells are lifted, collect cells into sterile 1.5 mL Eppendorf tube containing 400 uL of DMEM w/2% HI FBS. • 6. Centrifuge tubes for 500×g for 5 min. • 7. Aspirate supernatant and wash cells with 200 uL of cold PBS. • 8. Centrifuge tubes for 500×g for 5 min. • 9. Aspirate supernatant and add 400 μL of cold extraction buffer (provided in the NAD assay kit) and vortex each tube for 10 seconds. • 10. Centrifuge samples at 13,000×g for 10 min to remove insoluble material. • 11. Use a small aliquot of extract to determine total protein concentration by BCA protein assay kit. • 12. Deproteinize samples by filtering them through a 10 kDa cut-off spin filter. Centrifuge at 13,000×g for 10 min. • 13. After cell lysate is filtered, load 25 uL of samples to 96 well plate for NAD assay. • 14. Add 25 uL of extraction buffer to each well with samples to dilute them 1:2. Add 50 uL of standards to appropriate wells. • 15. Set up master reaction mix of cycling buffer and NAD cycling enzyme mix. Add 100 uL of mix to each well and incubate for […]. • 16. Add 10 uL of developer into each well. • 17. Let plate incubate at room temperature for 1 hr. • 18. Stop the reaction by adding 10 uL of stop solution into each well and mix well. • 19. Measure absorbance at 450 nm using plate reader. • 20. Plot standard curve and normalize data to determine total NAD level.
row,Compound,NAD+ level [pmol/mg protein]
1,NCCOC(=O)c1cccnc1,562
2,CCCCCCCCCCCCCCOC(=O)c1ccc[n+]([C@@H]2O[C@H](CO)[C@@H](O)[C@H]2O)c1,<1
3,O=C(OC[P+](c1ccccc1)(c1ccccc1)c1ccccc1)c1cccnc1,319
4,CC(=O)OC[C@H]1O[C@@H]([n+]2cccc(C(=O)OC3CC(C)CCC3C(C)C)c2)[C@H](OC(C)=O)[C@@H]1OC(C)=O (some centres unmarked),258
5,CC1=C(/C=C/C(C)=C/C=C/C(C)=C/C(=O)OCCOC(=O)c2cccnc2)C(C)(C)CCC1,788
6,O=C(Oc1cc(OC(=O)c2cccnc2)c2c(=O)c(O)c(-c3ccc(OC(=O)c4cccnc4)c(OC(=O)c4cccnc4)c3)oc2c1)c1cccnc1,328
7,O=C(CCCC[P+](c1ccccc1)(c1ccccc1)c1ccccc1)NCCOC(=O)c1cccnc1,508
8,CC(=O)OC[C@H]1O[C@@H]([n+]2cccc(C(=O)NCc3ccccc3)c2)[C@H](OC(C)=O)[C@@H]1OC(C)=O,399
9,O=C(Oc1ccc2c(c1)oc(=O)c1cc(O)ccc12)c1cccnc1,681
10,NCCNC(=O)c1cccnc1,587
11,CC(=O)OC[C@H]1O[C@@H]([n+]2cccc(C(=O)Oc3ccc(/C=C/c4cc(OC(C)=O)cc(OC(C)=O)c4)cc3)c2)[C@H](OC(C)=O)[C@@H]1OC(C)=O,<1
12,CCCCCCCCCCCCCCOC(=O)c1ccc[n+]([C@@H]2O[C@H](COP(=O)([O-])O)[C@@H](O)[C@H]2O)c1,475
13,O=C(CCCCC[P+](c1ccccc1)(c1ccccc1)c1ccccc1)NCCNC(=O)c1cccnc1,607
14,CC(C)(C)OC(=O)c1ccc[n+]([C@@H]2O[C@H](COP(=O)([O-])O)[C@@H](O)[C@H]2O)c1,<1
15,CCC(=O)OC[C@H]1O[C@@H]([n+]2cccc(C(=O)O)c2)[C@H](OC(=O)CC)[C@@H]1OC(=O)CC,667
16,CCCCCCCCCCCCCCNC(=O)c1ccc[n+]([C@@H]2O[C@H](COC(C)=O)[C@@H](OC(C)=O)[C@H]2OC(C)=O)c1,<1
17,CC(C)(C)OC(=O)CCCCCCCCCCCCCCCCC(=O)NCCNC(=O)c1cccnc1,460
18,O=C(Cc1ccccc1Nc1c(Cl)cccc1Cl)OCCOC(=O)c1cccnc1,<1
19,CC1CCC(C(C)C)C(OC(=O)c2ccc[n+]([C@@H]3O[C@H](CO)[C@@H](O)[C@H]3O)c2)C1 (some centres unmarked),464
20,COC(=O)c1ccc[n+]([C@@H]2O[C@H](COC(C)=O)[C@@H](OC(C)=O)[C@H]2OC(C)=O)c1,323
21,CCCCCc1cc(OC(=O)c2cccnc2)c2c(c1)OC(C)(CCC=C(C)C)C=C2 (centres unmarked),375
22,CCCC(=O)OC[C@H]1O[C@@H]([n+]2cccc(C(=O)O)c2)[C@H](OC(=O)CCC)[C@@H]1OC(=O)CCC,831
23,CC(=O)OC[C@H]1O[C@@H]([n+]2cccc(C(=O)Sc3ccccc3)c2)[C@H](OC(C)=O)[C@@H]1OC(C)=O,<1
24,O=C(Sc1ccccc1)c1ccc[n+]([C@@H]2O[C@H](CO)[C@@H](O)[C@H]2O)c1,<1
25,O=C(OCC[P+](c1ccccc1)(c1ccccc1)c1ccccc1)c1cccnc1,<1

row,Compound,NAD+ level [pmol/mg protein]
1,O=C(NCCNCCC[P+](c1ccccc1)(c1ccccc1)c1ccccc1)c1cccnc1,391
2,CC(=O)OC[C@H]1O[C@@H]([n+]2cccc(C(=O)O)c2)[C@H](OC(C)=O)[C@@H]1OC(C)=O,311
3,O=C(O)c1ccc[n+]([C@@H]2O[C@H](COC(=O)c3cccnc3)[C@@H](OC(=O)c3cccnc3)[C@H]2OC(=O)c2cccnc2)c1,656
4,O=C(NC[P+](c1ccccc1)(c1ccccc1)c1ccccc1)c1cccnc1,521
5,CC(=O)OC[C@H]1O[C@@H]([n+]2cccc(C(=O)OCc3ccccc3)c2)[C@H](OC(C)=O)[C@@H]1OC(C)=O,426
6,CC(=O)OC[C@H]1O[C@@H]([n+]2cccc(C(=O)NCCNC(=O)c3ccc[n+]([C@@H]4O[C@H](COC(C)=O)[C@@H](OC(C)=O)[C@H]4OC(C)=O)c3)c2)[C@H](OC(C)=O)[C@@H]1OC(C)=O,354
7,O=C(OCCCCCC[P+](c1ccccc1)(c1ccccc1)c1ccccc1)c1cccnc1,<1
8,O=C(NCCNCCCCCC[P+](c1ccccc1)(c1ccccc1)c1ccccc1)c1cccnc1,378
9,O=C(NCC[P+](c1ccccc1)(c1ccccc1)c1ccccc1)c1cccnc1,466
10,O=C(NCCCCCC[P+](c1ccccc1)(c1ccccc1)c1ccccc1)c1ccc[n+]([C@@H]2O[C@H](CO)[C@@H](O)[C@H]2O)c1,285
11,O=C(Cc1ccccc1Nc1c(Cl)cccc1Cl)NCCNC(=O)c1cccnc1,338
12,CC(=O)OC[C@H]1O[C@@H]([n+]2cccc(C(=O)OC(C)(C)C)c2)[C@H](OC(C)=O)[C@@H]1OC(C)=O,<1
13,O=C(CCCC[P+](c1ccccc1)(c1ccccc1)c1ccccc1)NCCNC(=O)c1cccnc1,495
14,O=C(OCCOCCC[P+](c1ccccc1)(c1ccccc1)c1ccccc1)c1cccnc1,<1
15,CC(=O)OC[C@H]1O[C@@H]([n+]2cccc(C(=O)OCCOC(=O)c3ccc[n+]([C@@H]4O[C@H](COC(C)=O)[C@@H](OC(C)=O)[C@H]4OC(C)=O)c3)c2)[C@H](OC(C)=O)[C@@H]1OC(C)=O,655
16,CC(=O)OC[C@H]1O[C@@H]([n+]2cccc(C(=O)NCCCCCC[P+](c3ccccc3)(c3ccccc3)c3ccccc3)c2)[C@H](OC(C)=O)[C@@H]1OC(C)=O,565
17,CCCCCCCCCCCCCCOC(=O)c1ccc[n+]([C@@H]2O[C@H](COC(C)=O)[C@@H](OC(C)=O)[C@H]2OC(C)=O)c1,<1
18,O=C(OCCC[P+](c1ccccc1)(c1ccccc1)c1ccccc1)c1cccnc1,576
19,CC1CCC(C(C)C)C(OC(=O)c2ccc[n+]([C@@H]3O[C@H](COP(=O)([O-])O)[C@@H](O)[C@H]3O)c2)C1 (some centres unmarked),472
20,O=C(OCCOCCCCCCCCC[P+](c1ccccc1)(c1ccccc1)c1ccccc1)c1cccnc1,<1
21,CC(=O)OC[C@H]1O[C@@H]([n+]2cccc(C(=O)NCCNC(=O)CCCCC[P+](c3ccccc3)(c3ccccc3)c3ccccc3)c2)[C@H](OC(C)=O)[C@@H]1OC(C)=O,311
22,O=C(Oc1ccc(/C=C/c2cc(OC(=O)c3cccnc3)cc(OC(=O)c3cccnc3)c2)cc1)c1cccnc1,616
23,CCCCCCCCCCCCCCNC(=O)c1ccc[n+]([C@@H]2O[C@H](CO)[C@@H](O)[C@H]2O)c1,<1
24,O=C(NCc1ccccc1)c1ccc[n+]([C@@H]2O[C@H](CO)[C@@H](O)[C@H]2O)c1,274
25,O=C(NCCC[P+](c1ccccc1)(c1ccccc1)c1ccccc1)c1cccnc1,560
